According to PMC6289772 (Cancer, 2018):

What was measured:
[1] = system: recurrent or refractory solid tumors; experiment: Tumor response assessment; type: in vivo, human (children and adolescents)
[2] = Axitinib plasma pharmacokinetics, phase 1 trial; type: in vivo
[3] = Toxicity / dose-limiting toxicity evaluation, phase 1 trial; type: in vivo
[4] = cited from earlier work
[5] = type: in vivo, human (children and adolescents)
[6] = median (range), Dose Level 2.4 mg/m^2, Day 1 (n=12)
[7] = median (range), Dose Level 3.2 mg/m^2, Day 1 (n=6)

Question: For `CNC(=O)c1ccccc1Sc1ccc2c(/C=C/c3ccccn3)n[nH]c2c1` [Axitinib], which “patients with partial response” value ([1]; alveolar soft part sarcoma, 15 patients with reportable response) is on record?
Answer: Its value is “One patient”.

Question: What about the “duration of partial response” value ([1]; patient with alveolar soft part sarcoma, prior to clinical progression) of the same compound?
Answer: The value was 6 months.

Question: What about the “median oral clearance CL/F” value ([2]; Day 1, children <12 years) of the same compound?
Answer: Its value is 28.6 L/h/m^2.

Question: And the “median oral clearance CL/F” value ([2]; Day 1, children ≥12 years)?
Answer: Its value is 19.7 L/h/m^2.

Question: And the “median oral clearance CL/F” value ([2]; Day 1, females)?
Answer: Its value is 19.7 L/h/m^2.

Question: What about the “median oral clearance CL/F” value ([2]; Day 1, males) of the same compound?
Answer: Its value is 24.2 L/h/m^2.

Question: What about the half-life ([2]; human, plasma, oral) of the same compound?
Answer: The half-life was 2.4 h.

Question: What about the AUC(0-t) ([2]; human, plasma, oral, 2.4 mg/m2, AUC0–8h, median (range), Dose Level 2.4 mg/m^2, Day 1 (n=12)) of the same compound?
Answer: The AUC(0-t) was 0.091 µg·h/mL.

Question: What about the AUC(0-t) ([2]; human, plasma, oral, 2.4 mg/m2, AUC0–8h, median (range), Dose Level 2.4 mg/m^2, Day 8 (n=12)) of the same compound?
Answer: Its AUC(0-t) is 0.147 µg·h/mL.

Question: What about the Cmax ([2]; human, plasma, oral, 2.4 mg/m2, Cmax, median (range), Dose Level 2.4 mg/m^2, Day 1 (n=12)) of the same compound?
Answer: Its Cmax is 0.0238 µg/mL.

Question: And the Cmax ([2]; human, plasma, oral, 2.4 mg/m2, Cmax, median (range), Dose Level 2.4 mg/m^2, Day 8 (n=12))?
Answer: The Cmax was 0.0474 µg/mL.

Question: What about the half-life ([2]; human, plasma, oral, 2.4 mg/m2, Half life, median (range), Dose Level 2.4 mg/m^2, Day 1 (n=12)) of the same compound?
Answer: The half-life was 2.2 h.

Question: What about the half-life ([2]; human, plasma, oral, 2.4 mg/m2, Half life, median (range), Dose Level 2.4 mg/m^2, Day 8 (n=12)) of the same compound?
Answer: The half-life was 2.5 h.

Question: What about the Tmax ([2]; human, plasma, oral, 2.4 mg/m2, Tmax, median (range), Dose Level 2.4 mg/m^2, Day 1 (n=12)) of the same compound?
Answer: The Tmax was 2 h.

Question: What about the Tmax ([2]; human, plasma, oral, 2.4 mg/m2, Tmax, median (range), Dose Level 2.4 mg/m^2, Day 8 (n=12)) of the same compound?
Answer: The Tmax was 1.5 h.

Question: And the AUC(0-t) ([2]; human, plasma, oral, 3.2 mg/m2, AUC0–8h, median (range), Dose Level 3.2 mg/m^2, Day 1 (n=6))?
Answer: The AUC(0-t) was 0.134 µg·h/mL.

Question: What about the AUC(0-t) ([2]; human, plasma, oral, 3.2 mg/m2, AUC0–8h, median (range), Dose Level 3.2 mg/m^2, Day 8 (n=5)) of the same compound?
Answer: Its AUC(0-t) is 0.14 µg·h/mL.

Question: And the Cmax ([2]; human, plasma, oral, 3.2 mg/m2, Cmax, median (range), Dose Level 3.2 mg/m^2, Day 1 (n=6))?
Answer: The Cmax was 0.038 µg/mL.

Question: And the half-life ([2]; human, plasma, oral, 3.2 mg/m2, Half life, median (range), Dose Level 3.2 mg/m^2, Day 1 (n=6))?
Answer: Its half-life is 2.6 h.

Question: What about the half-life ([2]; human, plasma, oral, 3.2 mg/m2, Half life, median (range), Dose Level 3.2 mg/m^2, Day 8 (n=5)) of the same compound?
Answer: Its half-life is 1.8 h.

Question: What about the Tmax ([2]; human, plasma, oral, 3.2 mg/m2, Tmax, median (range), Dose Level 3.2 mg/m^2, Day 1 (n=6)) of the same compound?
Answer: The Tmax was 2 h.

Question: What about the Tmax ([2]; human, plasma, oral, 3.2 mg/m2, Tmax, median (range), Dose Level 3.2 mg/m^2, Day 8 (n=5)) of the same compound?
Answer: Its Tmax is 2 h.

Question: And the half-life ([2]; human, plasma, oral, half-life (range), all patients)?
Answer: The half-life was 0.7 to 5.2 h.

Question: And the half-life ([2]; human, plasma, oral, median half-life, Day 8, all patients)?
Answer: The half-life was 2.5 h.

Question: And the “accumulation ratio (day 8 AUC0–8h versus day 1 AUC0–8h)” value ([2]; median (range), all patients)?
Answer: The value was 1.8 (0.3 – 4.7).

Question: And the Cl/F [2, 6]?
Answer: The Cl/F was 28.0 (9.8–230.1) L/h.

Question: What about the “Cl/m^2” value [2, 6] of the same compound?
Answer: The value was 21.4 (6.0–230.1) L/h/m^2.

Question: And the V/F [2, 6]?
Answer: Its V/F is 74.9 (43.6–888.7) L.

Question: What about the “V/m^2” value [2, 6] of the same compound?
Answer: Its value is 67.4 (39.1–888.7) L/m^2.

Question: What about the Cl/F [2, 7] of the same compound?
Answer: The Cl/F was 32.6 (14.2–65.2) L/h.

Question: And the “Cl/m^2” value [2, 7]?
Answer: Its value is 19.9 (11.4–61.5) L/h/m^2.

Question: What about the V/F [2, 7] of the same compound?
Answer: Its V/F is 99.4 (48.9–150.6) L.

Question: What about the “V/m^2” value [2, 7] of the same compound?
Answer: The value was 65.5 (39.1–101.6) L/m^2.

Question: And the Cmax ([2]; median (range), Dose Level 3.2 mg/m^2, Day 8 (n=5))?
Answer: Its Cmax is 41.5 (15.5–76.5) ng/mL.

Question: What about the “Abdominal pain, Grade 2” value ([3]; human, in vivo) of the same compound?
Answer: Its value is 1.

Question: And the “Alanine aminotransferase increased, Grade 2” value ([3]; human, in vivo)?
Answer: The value was 1.

Question: What about the “Anemia, Grade 1” value ([3]; human, in vivo) of the same compound?
Answer: Its value is 1.

Question: And the “Anorexia, Grade 1” value ([3]; human, in vivo)?
Answer: The value was 1.

Question: What about the “Fatigue, Grade 1” value ([3]; human, in vivo) of the same compound?
Answer: Its value is 3.

Question: And the “Fatigue, Grade 2” value ([3]; human, in vivo)?
Answer: Its value is 1.

Question: And the “Headache, Grade 2” value ([3]; human, in vivo)?
Answer: Its value is 1.

Question: What about the “Hemoglobin increased, Grade 1” value ([3]; human, in vivo) of the same compound?
Answer: Its value is 1.

Question: What about the “Hemoglobin increased, Grade 2” value ([3]; human, in vivo) of the same compound?
Answer: The value was 2.

Question: And the “Hemoglobin increased, Grade 3” value ([3]; human, in vivo)?
Answer: The value was 1.

Question: And the “Hypertension, Grade 2” value ([3]; human, in vivo)?
Answer: Its value is 3.

Question: And the “Hypertension, Grade 3” value ([3]; human, in vivo)?
Answer: The value was 1.

Question: What about the “Hypophosphatemia, Grade 1” value ([3]; human, in vivo) of the same compound?
Answer: The value was 1.

Question: And the “Hypothyroidism, Grade 2” value ([3]; human, in vivo)?
Answer: The value was 2.

Question: What about the “Leukopenia, Grade 1” value ([3]; human, in vivo) of the same compound?
Answer: The value was 1.

Question: What about the “Lipase increased, Grade 2” value ([3]; human, in vivo) of the same compound?
Answer: The value was 2.

Question: What about the “Lipase increased, Grade 3” value ([3]; human, in vivo) of the same compound?
Answer: Its value is 1.

Question: What about the “Lymphopenia, Grade 1” value ([3]; human, in vivo) of the same compound?
Answer: Its value is 1.

Question: What about the “Nausea, Grade 1” value ([3]; human, in vivo) of the same compound?
Answer: Its value is 1.

Question: And the “Nausea, Grade 2” value ([3]; human, in vivo)?
Answer: Its value is 2.

Question: What about the “Neutropenia, Grade 2” value ([3]; human, in vivo) of the same compound?
Answer: The value was 2.

Question: And the “Palmar-plantar erythrodysesthesia syndrome, Grade 1” value ([3]; human, in vivo)?
Answer: The value was 1.

Question: And the “Palmar-plantar erythrodysesthesia syndrome, Grade 2” value ([3]; human, in vivo)?
Answer: Its value is 1.

Question: What about the “Proteinuria, Grade 1” value ([3]; human, in vivo) of the same compound?
Answer: The value was 2.

Question: And the “Proteinuria, Grade 2” value ([3]; human, in vivo)?
Answer: Its value is 1.

Question: And the “Vomiting, Grade 1” value ([3]; human, in vivo)?
Answer: The value was 1.

Question: And the “Anemia, Grade 1” value ([3]; human, in vivo, 1 cycle)?
Answer: Its value is 3.

Question: And the “Anemia, Grade 2” value ([3]; human, in vivo, 1 cycle)?
Answer: Its value is 2.

Question: And the “Hemoglobin increased, Grade 1” value ([3]; human, in vivo, 1 cycle)?
Answer: The value was 3.

Question: What about the “Hypertension, Grade 2” value ([3]; human, in vivo, 1 cycle) of the same compound?
Answer: The value was 4.

Question: And the “Hypophosphatemia, Grade 1” value ([3]; human, in vivo, 1 cycle)?
Answer: The value was 2.

Question: And the “Hypothyroidism, Grade 1” value ([3]; human, in vivo, 1 cycle)?
Answer: The value was 1.

Question: What about the “Hypothyroidism, Grade 2” value ([3]; human, in vivo, 1 cycle) of the same compound?
Answer: Its value is 2.

Question: What about the “Leukopenia, Grade 1” value ([3]; human, in vivo, 1 cycle) of the same compound?
Answer: Its value is 1.

Question: What about the “Lipase increased, Grade 1” value ([3]; human, in vivo, 1 cycle) of the same compound?
Answer: Its value is 1.

Question: And the “Lipase increased, Grade 2” value ([3]; human, in vivo, 1 cycle)?
Answer: Its value is 1.

Question: What about the “Lymphopenia, Grade 1” value ([3]; human, in vivo, 1 cycle) of the same compound?
Answer: The value was 1.

Question: What about the “Lymphopenia, Grade 2” value ([3]; human, in vivo, 1 cycle) of the same compound?
Answer: Its value is 1.

Question: What about the “Neutropenia, Grade 2” value ([3]; human, in vivo, 1 cycle) of the same compound?
Answer: Its value is 1.

Question: And the “Palmar-plantar erythrodysesthesia syndrome, Grade 2” value ([3]; human, in vivo, 1 cycle)?
Answer: The value was 2.

Question: What about the “Proteinuria, Grade 1” value ([3]; human, in vivo, 1 cycle) of the same compound?
Answer: The value was 2.

Question: And the “Rash acneiform, Grade 1” value ([3]; human, in vivo, 1 cycle)?
Answer: The value was 2.

Question: And the “Sore throat, Grade 1” value ([3]; human, in vivo, 1 cycle)?
Answer: The value was 2.

Question: And the “Thrombocytopenia, Grade 1” value ([3]; human, in vivo, 1 cycle)?
Answer: Its value is 1.

Question: What about the “Vomiting, Grade 1” value ([3]; human, in vivo, 1 cycle) of the same compound?
Answer: The value was 3.

Question: And the “recommended phase 2 dose (RP2D)” value ([3]; human, in vivo, po, 28 days)?
Answer: The value was 2.4 mg/m^2/dose.

Question: And the “DLTs at dose level 1” value ([3]; in vivo)?
Answer: The value was “No DLTs”.

Question: And the “growth plate abnormalities (tibia radiograph)” value ([3]; in vivo)?
Answer: Its value is “No growth plate abnormalities were observed”.

Question: What about the “number of grade 3 toxicities (non-dose limiting)” value ([3]; in vivo) of the same compound?
Answer: Its value is “three”.

Question: And the “maximum tolerated and recommended dose” value ([3]; orally twice daily, continuous 28-day cycles, children with refractory solid tumors)?
Answer: The value was 2.4 mg/m^2/dose.

Question: What about the “maximum tolerated dose (MTD) in adults” value ([4]; PO BID) of the same compound?
Answer: Its value is 5 mg.

Question: And the “median time to onset of grade 1–2 hypertension” value ([4]; adults)?
Answer: The value was 16 days.

Question: What about the “median time to onset of grade ≥ 3 hypertension” value ([4]; adults) of the same compound?
Answer: The value was 24 days.

Question: What about the “patients with discontinuation due to axitinib related hypertension” value ([4]; adults) of the same compound?
Answer: The value was under 1%.

Question: What about the “patients with dose interruptions due to axitinib related hypertension” value ([4]; adults) of the same compound?
Answer: Its value is 12%.

Question: And the “patients with dose modification due to axitinib related hypertension” value ([4]; adults)?
Answer: The value was 5%.

Question: And the “trends in AKI biomarkers (KIM-1, NGAL, IL-18) during axitinib therapy” value ([5]; cycle 1 or between dose levels)?
Answer: The value was “no trends were identified”.

Question: And the “increase in urine UPC ratio per cycle” value ([5]; during axitinib therapy, not significant (P=0.30))?
Answer: The value was 4%.
